In patent publication US9617242B2, “Histone demethylase inhibitors” (priority 2012, dated 2017) one finds IC50 data, which are given here for 28 molecules.

One assay has as its target Jarid1A (Homo sapiens (Human), UniProt P29375). Description: Jarid1A in vitro enzyme inhibition assay (TR-FRET). Type of assay: biochemical. Background: Time-resolved FRET reads energy transfer from a long-lived donor to a nearby acceptor.
The next assay concerns the target Jarid1B (Homo sapiens (Human), UniProt Q9UGL1). The experiment in a line: Jarid1B in vitro enzyme inhibition assay (TR-FRET). Type of assay: biochemical.
Another assay concerns the target JMJD2C (Homo sapiens (Human), UniProt Q9H3R0). The experiment in a line: JMJD2C in vitro enzyme inhibition assay (TR-FRET). Type of assay: biochemical.
The next assay relates to KDM5A/B. The experiment in a line: In vitro cell-based assay: tri-methyl H3K4 immuno-blotting in ZR-75-1 breast cancer cells. The note with it: 72 hours, read-out: Cellular IC50. The procedure:
This quantitative immuno-blotting assay measures the amount tri-methylated histone H3 at amino acid Lysine number 4, a specific substrate […] of the direct enzymatic activity of the histone demethylases KDM5A and KDM5B from extracts of the ZR-75-1 breast cancer cell line.
This assay is a fluorometric immunoassay for the quantification of tri-methyl H3K4 extracted from cells treated with test compound and is used as a measure of the cellular inhibition of KDM5A/B.
Extracts were prepared containing all of the cellular histone material using detergent based lysis and sonication methods. These lysates were subsequently normalized for total protein content using a colorimetric bicinchonic acid assay (MicroBCA Pierce/Thermo Scientific). Normalized cell extracts were then subjected to typical immuno-blotting procedures using NuPage reagents (Life Technologies). Electrophoretically separated histones were then transferred and immobilized using polyvinylidene difluoride membrane (Immobilon-FL Millipore). The amount of tri-methylated lysine 4 of histone H3 was detected using an antibody specific to the tri-methylated state (Cell Signaling Technologies) and quantified on an infrared imager using a densitometry software package (Odyssey CLx, Image Studio, Li-Cor). This background subtracted densitometry value was reported as a ration of the GAPDH amount for that sample and then calculated as a percent of the DMSO treated sample. The software package XL-fit (IDBS) was then used to calculate a relative IC50 value for the dilution series of a given test compound according to the equation: fit=(D+((Vmax*(x^n))/((x^n)+(Km^n)))).

Structures can show the parent of a compound that is named as a salt.

Chain of Jarid1B (Q9UGL1 2-751): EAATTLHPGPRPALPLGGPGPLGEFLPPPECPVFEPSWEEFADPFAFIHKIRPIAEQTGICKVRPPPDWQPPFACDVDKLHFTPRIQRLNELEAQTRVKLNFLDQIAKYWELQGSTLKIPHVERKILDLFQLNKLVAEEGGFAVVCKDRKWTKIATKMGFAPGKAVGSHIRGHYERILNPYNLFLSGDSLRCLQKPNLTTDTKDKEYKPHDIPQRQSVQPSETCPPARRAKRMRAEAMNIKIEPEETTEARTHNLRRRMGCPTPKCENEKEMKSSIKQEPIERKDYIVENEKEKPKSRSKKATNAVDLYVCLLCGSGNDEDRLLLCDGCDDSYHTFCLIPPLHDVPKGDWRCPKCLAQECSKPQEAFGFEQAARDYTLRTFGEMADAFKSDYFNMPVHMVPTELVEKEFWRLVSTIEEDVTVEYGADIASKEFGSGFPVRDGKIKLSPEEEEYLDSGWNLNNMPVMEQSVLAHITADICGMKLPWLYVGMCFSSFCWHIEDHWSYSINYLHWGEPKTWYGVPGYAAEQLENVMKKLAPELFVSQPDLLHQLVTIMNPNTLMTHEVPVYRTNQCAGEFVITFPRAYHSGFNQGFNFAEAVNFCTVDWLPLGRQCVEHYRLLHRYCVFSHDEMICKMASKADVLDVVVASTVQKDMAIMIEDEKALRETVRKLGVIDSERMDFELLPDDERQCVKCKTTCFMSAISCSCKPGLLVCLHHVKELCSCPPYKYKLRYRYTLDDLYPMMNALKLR
Chain of JMJD2C (Q9H3R0 2-372): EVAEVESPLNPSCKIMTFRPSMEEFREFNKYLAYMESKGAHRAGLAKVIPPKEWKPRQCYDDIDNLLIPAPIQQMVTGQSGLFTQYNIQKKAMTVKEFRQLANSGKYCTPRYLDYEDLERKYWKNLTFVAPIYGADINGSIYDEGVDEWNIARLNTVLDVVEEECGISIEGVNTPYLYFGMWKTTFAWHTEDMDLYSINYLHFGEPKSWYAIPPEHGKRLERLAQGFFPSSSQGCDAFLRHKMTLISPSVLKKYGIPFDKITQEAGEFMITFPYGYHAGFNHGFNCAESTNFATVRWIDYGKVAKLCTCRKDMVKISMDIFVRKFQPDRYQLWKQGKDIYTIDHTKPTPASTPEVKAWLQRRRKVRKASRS
Chain of Jarid1A (P29375 1-1090): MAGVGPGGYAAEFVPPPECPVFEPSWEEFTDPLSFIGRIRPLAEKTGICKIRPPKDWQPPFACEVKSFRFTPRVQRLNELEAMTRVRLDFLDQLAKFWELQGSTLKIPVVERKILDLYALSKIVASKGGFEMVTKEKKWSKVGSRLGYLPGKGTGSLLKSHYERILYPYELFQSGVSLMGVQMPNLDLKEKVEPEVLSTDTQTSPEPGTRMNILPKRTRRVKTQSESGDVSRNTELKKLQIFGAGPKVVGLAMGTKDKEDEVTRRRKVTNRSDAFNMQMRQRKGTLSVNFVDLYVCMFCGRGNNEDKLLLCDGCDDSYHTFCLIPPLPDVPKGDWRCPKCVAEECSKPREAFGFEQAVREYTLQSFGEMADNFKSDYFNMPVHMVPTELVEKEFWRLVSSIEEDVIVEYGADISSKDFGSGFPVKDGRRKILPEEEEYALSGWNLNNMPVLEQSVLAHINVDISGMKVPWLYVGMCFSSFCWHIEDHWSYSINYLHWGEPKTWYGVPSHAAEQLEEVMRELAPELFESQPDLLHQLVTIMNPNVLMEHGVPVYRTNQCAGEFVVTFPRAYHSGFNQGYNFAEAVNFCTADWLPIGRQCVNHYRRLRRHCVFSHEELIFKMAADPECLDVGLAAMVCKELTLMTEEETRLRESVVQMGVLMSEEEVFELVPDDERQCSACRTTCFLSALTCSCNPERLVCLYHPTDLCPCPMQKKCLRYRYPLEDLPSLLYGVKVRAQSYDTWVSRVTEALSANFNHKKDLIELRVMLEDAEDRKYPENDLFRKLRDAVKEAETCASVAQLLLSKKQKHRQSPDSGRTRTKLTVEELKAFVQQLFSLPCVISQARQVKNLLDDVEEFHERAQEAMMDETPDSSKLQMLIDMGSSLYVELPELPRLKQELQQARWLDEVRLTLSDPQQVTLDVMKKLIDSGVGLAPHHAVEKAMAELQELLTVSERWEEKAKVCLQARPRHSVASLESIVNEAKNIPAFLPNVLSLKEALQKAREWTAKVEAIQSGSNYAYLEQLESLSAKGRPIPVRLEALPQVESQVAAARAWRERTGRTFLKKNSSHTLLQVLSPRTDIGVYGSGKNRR

By IC50 is commonly meant the concentration that gives 50% inhibition. Turning to `Cn1nc(Nc2cnccc2C(=O)O)c2ccccc21` [Example 1, 3-[(1-methyl-1H-indazol-3-yl)amino]pyridine-4-carboxylic acid], the IC50 against Jarid1A is less than 100 nM; on Jarid1B, less than 100 nM; against JMJD2C, less than 100 nM; in the assay with KDM5A/B, 1000 to 10000 nM.

`O=C(O)c1ccncc1Nc1nn(CCN2CCC(F)(F)CC2)c2ccc(F)cc12` [Example 73, 3-({1-[2-(4,4-difluoropiperidin-1yl)ethyl]-5-fluoro-1H-indazol-3-yl}amino)pyridine-4-carboxylic acid]: the IC50 on Jarid1A was less than 100 nM; on Jarid1B, less than 100 nM; against JMJD2C it was less than 100 nM; in the assay on KDM5A/B, 100 to 1000 nM.

`CN1CCOC(CCn2nc(Nc3cnccc3C(=O)O)c3cc(F)ccc32)C1` (centres unmarked) [Example 58, 3-({5-fluoro-1-[2-(4-methylmorpholin-2-yl)ethyl]-1H-indazol-3-yl}amino)pyridine-4-carboxylic acid]: the IC50 on Jarid1A was less than 100 nM; on Jarid1B, less than 100 nM; against JMJD2C, less than 100 nM; with KDM5A/B, 1000 to 10000 nM.

`CCCn1nc(Nc2cnccc2C(=O)O)c2cc(C#N)ccc21` [Example 53]: the IC50 was less than 100 nM against Jarid1A, less than 100 nM at Jarid1B, less than 100 nM against JMJD2C and 1000 to 10000 nM in the assay with KDM5A/B.

In the case of `O=C(O)c1ccncc1Nc1nn(CCCCCO)c2ccc(F)cc12` [Example 44, 3-{[5-fluoro-1-(5-hydroxypentyl)-1H-indazol-3-yl]amino}pyridine-4-carboxylic acid], the IC50 against Jarid1A, at Jarid1B and at JMJD2C was less than 100 nM throughout.

Take `O=C(O)c1ccncc1Nc1nn([C@H]2CCOC2)c2ccc(F)cc12` [Example 66, 3-({5-fluoro-1-[(3S)-tetrahydrofuran-3-yl]-1H-indazol-3-yl}amino)pyridine-4-carboxylic acid]: the IC50 against Jarid1A was less than 100 nM; at Jarid1B it was less than 100 nM; against JMJD2C, less than 100 nM; with KDM5A/B, 1000 to 10000 nM.

Consider `CCCn1nc(Nc2cnccc2C(=O)O)c2cccc(C)c21` [Example 45], for which the IC50 at JMJD2C was in the range of 100 to 1000 nM; in the assay on KDM5A/B, 1000 to 10000 nM.

`O=C(O)c1ccncc1Nc1noc2ccccc12` [Example 3, 3-(1,2-benzoxazol-3-ylamino]pyridine-4-carboxylic acid]: the IC50 against Jarid1A, on Jarid1B and at JMJD2C was less than 100 nM in each case.

In the case of `Cn1nc(Nc2cnccc2C(=O)O)c2cc(C(F)(F)F)ccc21` [Example 14, 3-[(5-trifluoromethyl-1-methyl-1H-indazol-3-yl)amino]pyridine-4-carboxylic acid], the IC50 on Jarid1A is less than 100 nM; at Jarid1B, less than 100 nM; against JMJD2C it was less than 100 nM; in the assay on KDM5A/B, 1000 to 10000 nM.

As for `CN1CCC(CCn2nc(Nc3cnccc3C(=O)O)c3cc(F)ccc32)CC1` [Example 41, 3-({5-fluoro-1-{2-(1-methylpiperidin-4-yl)ethyl]-1H-indazol-3-yl]amino)pyridine-4-carboxylic acid, trifluroacetic acid salt], the IC50 against Jarid1A, at Jarid1B and against JMJD2C was less than 100 nM throughout.

In the case of `O=C(O)c1ccncc1Nc1nn(CC(O)C(F)(F)F)c2ccc(F)cc12` (centres unmarked) [Example 55, 3-{[5-fluoro-1-(3,3,3-trifluoro-2-hydroxypropyl)-1H-indazol-3-yl]amino}pyridine-4-carboxylic acid], the IC50 on Jarid1A, at Jarid1B and at JMJD2C was less than 100 nM throughout.

As to `O=C(O)c1ccncc1Nc1nn(CCN2CCCC2)c2ccc(Cl)cc12` [Example 78, 3-({5-chloro-1-[2-(pyrrolidin-1-yl)ethyl]-1H-indazol-3-yl}amino)pyridine-4-carboxylic acid], the IC50 against Jarid1A, on Jarid1B and on JMJD2C was less than 100 nM throughout.

Consider `COCCn1nc(Nc2cnccc2C(=O)O)c2ccccc21` [Example 10, 3-{[1-(2-methoxyethyl)-1H-indazol-3-yl]amino}pyridine-4-carboxylic acid], for which the IC50 is less than 100 nM against Jarid1A, less than 100 nM against Jarid1B and 1000 to 10000 nM in the assay with KDM5A/B.

`O=C(O)c1ccncc1Nc1nn(CCC2CC2)c2ccc(F)cc12` [Example 31, 3-{[1-(cyclopropylethyl)-5-fluoro-1H-indazol-3-yl]amino}pyridine-4-carboxylic acid]: the results for the IC50 at Jarid1A, against Jarid1B and with KDM5A/B were less than 100 nM, less than 100 nM and 1000 to 10000 nM, respectively.

For the molecule `O=C(O)c1ccncc1Nc1nn(CCc2ccccc2)c2ccc(F)cc12` [Example 19, 3-{[5-fluoro-1-(2-phenethyl)-1H-indazol-3-yl]amino}pyridine-4-carboxylic acid], the IC50 against Jarid1A was less than 100 nM; against Jarid1B, less than 100 nM; in the assay on KDM5A/B, greater than 10000 nM.

Take `O=C(O)c1ccncc1Nc1nn(CC2CC2)c2ccc(F)cc12` [Example 16, 3-{[1-(cyclopropylmethyl)-5-fluoro-1H-indazol-3-yl]amino}pyridine-4-carboxylic acid]: the IC50 against Jarid1A is less than 100 nM; on Jarid1B it was less than 100 nM; with KDM5A/B, 1000 to 10000 nM.

Consider `O=C(O)c1ccncc1Nc1nn(CCN2CCOCC2)c2ccc(F)cc12` [Example 56, 3-({5-fluoro-1-[2-(morpholin-1-yl)ethyl]-1H-indazol-3-yl}amino)pyridine-4-carboxylic acid], for which the IC50 at Jarid1A, against Jarid1B and on JMJD2C was less than 100 nM each time.

Turning to `O=C(O)c1ccncc1Nc1nn(CCC(F)(F)F)c2ccc(F)cc12` [Example 32, 3-{[5-fluoro-1-(3,3,3-trifluoropropyl)-1H-indazol-3-yl]amino}pyridine-4-carboxylic acid], the IC50 was less than 100 nM on Jarid1A, less than 100 nM at Jarid1B and 100 to 1000 nM in the assay on KDM5A/B.

Turning to `N#CNC(=O)c1ccncc1Nc1nn(CCN2CCCC2)c2ccc(F)cc12` [Example 77, N-cyano-3-({5-fluoro-1-[2-(pyrrolidin-1-yl)ethyl]-1H-indazol-3-yl}amino)pyridine-4-carboxamide], the IC50 against Jarid1A, at Jarid1B and on JMJD2C was less than 100 nM throughout.

Take `CCCn1nc(Nc2cnccc2C(=O)O)c2ccccc21` [Example 9, 3-[(1-propyl-1H-indazol-3-yl)amino]pyridine-4-carboxylic acid]: the values for the IC50 on Jarid1A, against Jarid1B and with KDM5A/B were less than 100 nM, less than 100 nM and 100 to 1000 nM, respectively.

As for `O=C(O)c1ccncc1Nc1cn(CCC(F)(F)F)c2ccc(Cl)cc12` [Example 59, 3-{[5-chloro-1-(3,3,3-trifluoropropyl)-1H-indol-3-yl]amino}pyridine-4-carboxylic acid], the IC50 is less than 100 nM against Jarid1A, less than 100 nM against Jarid1B and 1000 to 10000 nM with KDM5A/B.

Take `O=C(O)c1ccncc1Nc1nn(CC2CCC2)c2ccc(F)cc12` [Example 28, 3-{[1-(cyclobutylmethyl)-5-fluoro-1H-indazol-3-yl]amino}pyridine-4-carboxylic acid]: the values for the IC50 against Jarid1A, against Jarid1B and in the assay on KDM5A/B were less than 100 nM, less than 100 nM and 100 to 1000 nM, respectively.

Turning to `O=C(O)c1ccncc1Nc1nn(CC2CCCC2)c2ccc(F)cc12` [Example 30, 3-{[1-(cyclopentylmethyl)-5-fluoro-1H-indazol-3-yl]amino}pyridine-4-carboxylic acid], the 50% inhibitory concentration (IC50) is less than 100 nM at Jarid1A, less than 100 nM at Jarid1B and 1000 to 10000 nM in the assay on KDM5A/B.

Take `O=C(O)c1ccncc1Nc1nn(C2CCOC2)c2ccc(Cl)cc12` (centres unmarked) [Example 69, 3-{[5-chloro-1-(tetrahydrofuran-3-yl)-1H-indazol-3-yl]amino}pyridine-4-carboxylic acid]: the values for the IC50 against Jarid1A, against Jarid1B and in the assay with KDM5A/B were less than 100 nM, less than 100 nM and 1000 to 10000 nM, respectively.

Consider `O=C(O)c1ccncc1Nc1nn(CCC(F)(F)F)c2ccc(Cl)cc12` [Example 35, 3-{[5-chloro-1-(3,3,3-trifluoropropyl)-1H-indazol-3-yl]amino}pyridine-4-carboxylic acid], for which the IC50 was less than 100 nM against Jarid1A, less than 100 nM at Jarid1B and 100 to 1000 nM with KDM5A/B.

In the case of `CCC(C)n1nc(Nc2cnccc2C(=O)O)c2cc(F)ccc21` (centres unmarked) [Example 26, 3-{[5-fluoro-1-(butan-2-yl)-1H-indazol-3-yl]amino}pyridine-4-carboxylic acid], the results for the IC50 on Jarid1A, against Jarid1B and with KDM5A/B were less than 100 nM, less than 100 nM and 1000 to 10000 nM, respectively.

For `CN(C)CCOCCn1nc(Nc2cnccc2C(=O)O)c2cc(Cl)ccc21` [Example 40, 3-[(1-{2-[2-(dimethylamino)ethoxy]ethyl}-5-chloro-1H-indazol-3-yl)amino]pyridine-4-carboxylic acid, trifluoroacetic acid salt], the IC50 against Jarid1A, against Jarid1B and at JMJD2C was less than 100 nM each time.

Turning to `Cn1nc(Nc2cnccc2C(=O)O)c2c(F)cccc21` [Example 13, 3-[(4-fluoro-1-methyl-1H-indazol-3-yl)amino]pyridine-4-carboxylic acid], the IC50 against Jarid1A, at Jarid1B and on JMJD2C was less than 100 nM throughout.
